In patent publication US12385017B2, “Acute respiratory distress syndrome therapeutic agent” (LTT Bio-Pharma Co., Ltd., priority 2015, dated 2025):
Like-named read-outs stand apart in the source and are kept apart here.

Tests used:
[1] = system: CLP-induced systemic inflammation; assay: CLP-induced systemic inflammation (plasma inflammatory cytokines); type: in vivo, mouse; settings: male ICR mice, drug once before CLP, plasma 8 hours after CLP
Protocol: (§1) A mouse was anesthetized with pentobarbital (10 mg/kg, intraperitoneally) and a small abdominal midline incision was made to expose the cecum thereof. Subsequently, the cecum was ligated at approximately 2 cm with a silk thread and punctured twice with an 18 G needle (manufactured by Terumo Corporation). Then, the abdomen was closed.
Sham mice (sham operation group) were subjected to the same operation except the ligation and puncture of the cecum. […]
The levels of BUN and creatinine in blood were measured by using a DRI-CHEM slide and LabAssay creatinine, respectively, according to the protocols. The level of inflammatory cytokines in plasma was measured by an Elisa kit according to the protocol.
A CLP operation or a sham operation was performed on male ICR mice.
Drugs were administered once before the CLP operation or the sham operation. […] Sivelestat (mg/kg) was intraperitoneally administered. EBD (Evans blue dye) (30 mg/kg) was administered intravenously 8 hours after the CLP operation. Plasma samples were prepared and the level of inflammatory cytokines in plasma was measured.
A CLP operation or a sham operation was performed on a male ICR mouse. […] A plasma sample was prepared 8 hours after the CLP investigation and the levels of BUN and creatinine (Test A) and the level of inflammatory cytokines (Test B) were measured.
A CLP operation or a sham operation was performed on a male ICR mouse. NAC (mg/kg) was administered intraperitoneally or unmodified SOD (kU/kg) was administered intravenously, once before the CLP operation. A plasma sample was prepared 8 hours after the CLP operation and the levels of BUN and creatinine (Test A) and the level of inflammatory cytokines (Test B) were measured.

[2] = system: reactive oxygen species (ROS); assay: In vivo imaging of reactive oxygen species (ROS), CLP model; design: species or system mouse; settings: drug once before CLP, L-012 75 mg/kg 4 hours after the CLP operation
Protocol: In the case of the CLP model, the mouse was euthanized 2 minutes after injection of L-012, subjected to abdominal midline incision, and imaged (five-minute intervals).
Male ICR mice were subjected to a CLP operation. Dexamethasone (200 μg/mouse) was administered intravenously once before the CLP operation (Tests A and C). Sivelestat (100 mg/kg) was administered intraperitoneally (Tests B and D). […] The sum intensity of ROS was determined by SlideBook6 software (Tests C and D).

[3] = system: mechanical ventilator (MV)-induced lung injury; assay: Mechanical ventilator (MV)-induced lung injury and change of lung mechanics; type: in vivo, mouse; settings: male ICR mice
Protocol: A mechanical ventilator for small animals was used to induce ventilator-induced lung injury (VILI). After a mouse was anesthetized with pentobarbital (10 mg/kg, intraperitoneally), tracheotomy was performed and an 8 mm metal tube was inserted into the trachea thereof. The mouse was mechanically ventilated with a tidal volume of 17.5 mL/kg, a positive end-expiratory pressure of 0 cm H2O, and a rate of 150 breaths/min.
Total respiratory elastance was measured every 30 minutes for 120 minutes by a snapshot technique.
The data were analyzed by using FlexiVent software (version 5.3 SCIREQ).
(§2) For a quantitative examination of the permeability of an organ, Evans blue (EBD) (30 mg/kg) was administered to the mouse intravenously 2 hours before sacrificing the mouse. Tissue (lung, liver, and kidney) specimens were cut into pieces and incubated with a formaldehyde solution for 24 hours at 60° C. The specimens were centrifuged to obtain supernatants and the quantity of EBD was determined by using absorbance at 620 nm of the specimens.
Firstly, the wet weight of a lung was measured to determine a wet-to-dry weight ratio of the lung. Then, the lung was dried at 60° C. overnight and reweighed to obtain the dry weight thereof.
A tissue specimen was fixed in 10% neutral buffered formalin for 24 hours and then embedded in paraffin before being cut into a section 4 μm thick. […]
All the scanned images were analyzed using NDP-view2 software (Hamamatsu Photonics K.K.) and Image J software. […]
EBD (Evans blue dye) (30 mg/kg) was simultaneously administered intravenously, extracted from the lung 2 hours after the MV treatment, and measured (Test A).
The wet-to-dry weight ratio of the lung was determined 2 hours after the MV treatment (Test B). […]
The lesion area was determined by ImageJ software (Test D).
Total respiratory elastance was measured every 30 minutes for 120 minutes (Test E). […]
The wet-to-dry weight ratio of the lung was determined 2 hours after the MV treatment (Tests A and C). Total respiratory elastance was measured every 30 minutes for 120 minutes (Tests B and D).

[4] = system: CLP-induced multiple organ failure; assay: CLP-induced multiple organ failure (Evans blue vascular permeability, BUN, creatinine); type: in vivo, mouse; settings: male ICR mice, drug once before CLP, plasma 8 hours after CLP
Protocol: as §1
(§3) Sham mice (sham operation group) were subjected to the same operation except the ligation and puncture of the cecum.
A mouse was anesthetized with isoflurane and 1 mg/kg LPS (in 0.9% NaCl) was administered thereto intratracheally once using a micropipette (P200). […]
as §2, with “Tissue (lung, liver, and kidney) specimens were cut into pieces and incubated with a formaldehyde solution for 24 hours at 60° C.” left out
The levels of BUN and creatinine in blood were measured by using a DRI-CHEM slide and LabAssay creatinine, respectively, according to the protocols. The level of inflammatory cytokines in plasma was measured by an Elisa kit according to the protocol. […]
Drugs were administered once before the CLP operation or the sham operation. […] Two hours later, EBD was extracted from the kidney and liver and measured. […]

[5] = system: reactive oxygen species (ROS)
Protocol: Measurement of reactive oxygen species (ROS) in a mouse was performed by in vivo imaging analysis with some modifications.
An imaging system (Lumazone, in vivo imaging system, SHOSHIN EM, Okazaki, Japan) including a chamber equipped with an electron multiplying CCD camera was used. L-012 (in saline), which is a luminescent probe, was administered to the mouse intravenously at 75 mg/kg.
In the case of the LPS and MV models, the mouse was euthanized 5 minutes after injection of L-012, and the lung thereof was anatomized promptly and imaged (five-minute intervals).
The data were analyzed by using SlideBook6 software (Intelligent Imaging Innovations, Inc., Denver, CO).
CLP operation (Tests A and B), LPS administration (Tests C and D), and MV treatment (Tests E and F) were performed as described above. […] A luminescent probe (L-012) (75 mg/kg) was administered 4 hours after the CLP operation, 6 hours after the LPS administration, and 2 hours after the MV treatment. An abdominal cavity (Test A) or a lung (Tests C and E) of the mouse was imaged using a Lumazone in vivo imaging system. The sum intensity of reactive oxygen species (ROS) was determined by Slide Book6 software (Tests B, D, and F).

[6] = system: lipopolysaccharide (LPS)-induced lung injury
Protocol: A mouse was anesthetized with isoflurane and 1 mg/kg LPS (in 0.9% NaCl) was administered thereto intratracheally once using a micropipette (P200). […] In the case of sivelestat, 10 or 100 mg/kg of sivelestat (in 0.9% NaCl) was administered intraperitoneally using a 21 G needle.
as §2
BALF was collected by inserting a cannula into a trachea and performing lavage twice with 1 mL of 50 U/mL heparin (in sterile 0.9% NaCl). Usually, about 1.8 mL of BALF was collected from each mouse. The amount of proteins in BALF was determined by a Bradford assay. The level of inflammatory cytokines was determined by the Elisa kit as described above.
A tissue specimen was fixed in 10% neutral buffered formalin for 24 hours and then embedded in paraffin before being cut into a section 4 μm thick. The section was stained firstly with Mayer's hematoxylin and secondly with 1% alcoholic eosin solution (H&E staining). The specimen was mounted with malinol (mounting medium) and scanned using a NanoZoomer-XR digital slide scanner (Hamamatsu Photonics K.K.).
All the scanned images were analyzed using NDP-view2 software (Hamamatsu Photonics K.K.) and Image J software.
LPS (1 mg/kg) or vehicle (control) was administered once into a trachea of a male ICR mouse.
ESD (Evans blue dye) (30 mg/kg) was injected intravenously 6 hours after a CLP operation. Two hours later, ESD was extracted from the lung and liver and the amount thereof was measured (Test A).
A section of the lung tissue was prepared 24 hours after the LPS administration and was subjected to a histopathological examination (H&E staining) (Test B). The lesion area was determined by ImageJ software (Test C). BALF was prepared 48 hours after the LPS administration and the levels of protein (Test D) and inflammatory cytokines (Test E) were determined.

[7] = system: mice subjected to cecal ligation and puncture technique (CLP technique); settings: male ICR mice
Protocol: as §1, §3

[8] = BALF 48 hours after the LPS administration (FIG. 4E)

Which results are given for `CC(C)(C)C(=O)Oc1ccc(S(=O)(=O)Nc2ccccc2C(=O)NCC(=O)O)cc1` [sivelestat, sivelestat sodium hydrate, reference compound]?
IL-6 level in plasma [1]: failed in suppressing an increase; TNF-α level in plasma [1]: failed in suppressing an increase

Which results are given for “lecithinized superoxide dismutase [PC-SOD]”?
IL-6 level in plasma [1]: suppressed an increase; TNF-α level in plasma [1]: suppressed an increase; reactive oxygen species in the abdominal cavity (sum intensity, L-012) [2]: suppressed an increase of reactive oxygen species; lung edema (wet-to-dry weight ratio of the lung) ([3]; drug once immediately before MV, 2 hours after the MV treatment): suppressed lung edema; lung injury (histopathological examination, H&E staining; lesion area) ([3]; lung section 2 hours after the MV treatment (FIG. 5C, D)): suppressed lung injury; lung elastance (total respiratory elastance) ([3]; measured every 30 minutes for 120 minutes): suppressed an increase in lung elastance; BUN (blood urea nitrogen) level [4]: suppressed an increase; creatinine level [4]: suppressed an increase; reactive oxygen species in the lung (sum intensity, L-012) ([5]; LPS, PC-SOD i.v. once before LPS, L-012 6 hours after the LPS administration): suppressed an increase of reactive oxygen species; reactive oxygen species in the lung (sum intensity, L-012) ([5]; MV, PC-SOD i.v. once before MV, L-012 2 hours after the MV treatment): suppressed an increase of reactive oxygen species; protein in BALF ([6]; BALF 48 hours after the LPS administration (FIG. 4D)): suppressed an increase of protein; IL-6 in BALF [6, 8]: suppressed an increase; IL-10 in BALF [6, 8]: suppressed an increase; TNF-α in BALF [6, 8]: suppressed an increase; histopathological examination of lung tissue (H&E staining) ([6]; lung section 24 hours after the LPS administration (FIG. 4B)): suppressed alveolar hemorrhage, leukocyte infiltration, and lung interstitial edema; lesion area of lung (ImageJ) ([6]; lung section 24 hours after the LPS administration (FIG. 4C)): reduced a lung disorder area; survival rate ([7]; administration 1, 12, 24, and 48 hours after the CLP operation (FIG. 1B)): increased the survival rate; survival rate ([7]; administration immediately before the CLP operation and 12, 24, and 48 hours after (FIG. 1A)): increased the survival rate in a dose-dependent manner
